{
  "source": "patent US9616006B2",
  "about": "“Methods and compositions for treating dermatological diseases and conditions” (priority 2007, dated 2017)",
  "key": {"tyrosinase": {"tested_on": "tyrosinase", "assay": "DOPA oxidase assay of cell extracts from treated human melanocytes", "format": "cell-based", "conditions": "extracts of human melanocytes treated for 9 days", "experimental": "Cell lysates were prepared from human melanocytes. The amount of tyrosinase in these cell lysates was determined by DOPA oxidase assay.\nFIGS. 14-17 show the skin-lightening effects of topically-applied formulations of isoeugenol and its ester isoeugenol acetate (a.k.a. isoeugenyl acetate) in the treatment of hyperpigmented areas in the skin, wherein a reduction of melanin pigment in the skin is caused by the topical application of the formulations. In addition to blocking a post-tyrosinase step in melanin synthesis, IE and IE acetate can inhibit the expression of the tyrosinase protein in human melanocytes. […] If the cell extracts contain tyrosinase when an aliquot of extract is placed in a tube containing L-DOPA (a tyrosinase substrate) in buffer, the enzyme will convert the DOPA to melanin. The melanin will appear brownish-black in the assay tube. If IE or IE-acetate has inhibited tyrosinase synthesis in melanocytes, then the extracts from these cells will contain no enzyme and will not be able to produce melanin from DOPA in the assay tube. […] In this assay, cell extracts from human melanocytes either left untreated or treated with 200 micromolar of either IE or isoeugenol acetate for 9 days are run on SDS polyacrylamide electrophoresis gels to separate tyrosinase from other proteins. The tyrosinase in the gel is then blotted to a membrane and the tyrosinase detected by staining with a specific anti-tyrosinase antibody. The antibody-bound tyrosinase is then visualized by chemiluminescence."}, "[1]": {"tested_on": "HAS-2 (Hyaluronic acid synthase-2)", "assay": "HAS-2 mRNA in fibroblasts by RT-PCR", "format": "cell-based, human", "conditions": "72 hours", "excerpt": "The presently claimed and disclosed inventive concept(s) further contemplates use of various DHE, IE and EV compositions and salts, esters, ethers, and derivatives thereof to mitigate the effects of aging on the skin. For all aging studies, normal human fibroblast cell cultures were used. These cells normally produce collagen, elastin and hyaluronic acid. As the skin ages, the fibroblasts in the dermis lose their ability to produce these three key components of skin, and the skin consequently loses elasticity, thickness and smooth texture. In addition, as fibroblasts age, they increase the expression of certain enzymes that destroy collagen and elastin. There are about 13 of these enzymes, collectively referred to as MMPs (matrix metalloproteinases). One of the principal MMPs, MMP-1, is responsible for collagen degradation. For experiments herein to determine the effects of DHE, IE and EV on collagen, elastin and hyaluronic acid, fibroblasts were treated with the compounds for 72 hours, mRNA was then isolated, and analyzed for abundance by RT-PCR (Reverse transcriptase-Polymerase Chain Reaction).\nDHE, IE and EV, are also shown herein to stimulate mRNA for HAS-2. HAS-2 (Hyaluronic acid synthase-2) is the enzyme that manufactures hyaluronic acid (HA) in the skin. HA is a glycosaminoglycan important for maintaining moisture and suppleness in the skin. […] As the skin ages, the production of HA decreases and this causes the skin to sag and become thin."}},
  "data": [
    {"smiles": "CC=Cc1ccc(O)c(OC)c1", "note": "[IE, isoeugenol]", "values": [
      {"measurement": "tyrosinase activity / melanin made from L-DOPA by cell extracts", "setting": "tyrosinase", "value": "very little melanin was made"},
      {"measurement": "tyrosinase activity / melanin made from L-DOPA by cell extracts", "setting": "tyrosinase; listed as TH-212", "value": "absence of tyrosinase activity"},
      {"measurement": "mRNA for HAS-2", "setting": "[1]", "value": "stimulate"}
    ]}
  ]
}
